Assays:
[1] = system: A549 cells; assay: Wound healing and transwell migration assays; type: cell-based, human; conditions: 5 μM
Protocol: Figure 4. Ru5 induces mitophagy and ferroptosis and inhibits EMT in vitro. (A) TEM images of A549 cells treated with vehicle (1% DMSO) or Ru5 (10 μM, 12 h). Red rectangles represent the region enlarged. Scale bar: 5 μm and 500 nm (enlarged). (B) The morphological examination of mitochondria in A549 cells treated with Ru5 (10 μM) for the indicated time intervals. MTG: λex = 514 nm; λem = 540 ± 20 nm. LTDR: λex = 633 nm; λem = 700 ± 20 nm. Scale bar: 20 μm. (C) Western blotting analysis showing the impact of Ru5 (24 h) on the expression of proteins related to mitochondrial dysfunction and ferroptosis. (D and E) The impact of different inhibitors on antiproliferative activity of Ru5 (24 h). (F) RT-qPCR analysis of EMT-related genes in A549 cells after Ru5 (10 μM, 12 h) treatment. (G) The impact of Ru5 (5 μM) on the migration of A549 cells was measured by a wound healing assay. Scale bar: 100 μm. (H) Quantitative analysis of the impact of Ru5 on wound healing. (I) Selective images of the impact of Ru5 (5 μM, 48 h) on the migration of A549 cells detected by transwell assay. Scale bar: 100 μm. […] Firstly, real-time quantitative polymerase chain reaction (RT-qPCR) experiments (Fig. 4F) confirm that Ru5 can down-regulate genes including CDH1 (cadherin 1), FN1 (fibronectin 1) and MMP2 (matrix metallopeptidase 2).

[2] = system: A549 xenograft; assay: A549 xenograft nude mice model; type: in vivo
Protocol: Lastly, the in vivo anticancer activity of Ru5 was assessed via a A549 xenograft nude mice model (Fig. 5A). Mice were treated with PBS, cisplatin (5 mg kg^−1) or Ru5 (5 mg kg^−1) for 14 days, during which body weights and tumor volumes were monitored.
Figure 5. […] (A) Schematic illustration of in vivo therapeutic protocol. (B) Graphs of tumor volumes of nude mice after treatment with Ru5 (5 mg kg^−1), cisplatin (5 mg kg^−1) and PBS. The intratumoral injections were performed every 7 days. Data are presented as means ± SD, n = 5. (C) Immunohistochemical analysis of hematoxylin-eosin (H&E) staining in tumor sections from mice with different treatments. Scale bar: 50 μm. (D) Tumors separated from nude mice. (E) The average body weight of the mice in each group during the treatment process. Data are presented as means ± SD, n = 5. (F) H&E staining of the main organs from mice with different treatments. Scale bar: 100 μm.

[3] = system: cisplatin-resistant A549R; assay: MTT antiproliferative assay, A549R; type: cell-based, human; conditions: 72 h
Source text: Ru3–Ru9 also show a certain selectivity for cancer cells over normal cells, and Ru2, Ru3, Ru5 and Ru9 show higher selectivity index (SI) values than the other complexes.
PA-BPP was then used to confirm the molecular targets of Ru5 by modifying it with a ‘minimalist’ biorthogonal handle-containing photo-cross-linker. Through our structure–activity relationship analysis and comparison with other ruthenium complexes utilizing phen as the auxiliary ligands with similar coordination structures (using cisplatin as a control), we propose that the β-carboline ligands play an important role in antiproliferative activity. To maintain the binding characteristics of the β-carboline moiety with the targeted biomolecules, we linked the photo-cross-linker to one of the auxiliary ligands of Ru5.

[4] = Aqueous solubility by concentration-absorbance linearity; type: physicochemical; conditions: PBS with 1% DMSO
Source text: Subsequently, the lipophilicity and aqueous solubility of Ru1–Ru9 were investigated.

IC50 [3]: 3.3 ± 0.7 µM
Linear relationship between absorbance and concentration up to [4]: at least 100 μM
Compound: F[P-](F)(F)(F)(F)F.F[P-](F)(F)(F)(F)F.[Ru+2].c1ccc2c(c1)[nH]c1c(-c3ncc[nH]3)nccc12.c1cnc2c(c1)ccc1cccnc12.c1cnc2c(c1)ccc1cccnc12 [Ru5]
Migration rates of A549 cells [1]: markedly decrease
Body weight loss ([2]; 5 mg kg−1, 14 days): no significant body weight loss
Organ damage (H&E staining of the main organs) ([2]; 5 mg kg−1, 14 days): no significant
Tumor inhibition compared with cisplatin and PBS ([2]; 5 mg kg−1, 14 days): better tumor inhibition
Tumor growth inhibitory rate ([2]; 5 mg kg−1, intratumoral injection every 7 days, 14 days, compared with the control groups): ~89.6%
